Measured values: patent US11434205B2, “Substituted imidazole carboxylate derivatives and the use thereof” (priority 2018, dated 2022)
Like-named read-outs stand apart in the source and are kept apart here.

How the values were obtained:
[1] = system: rats; settings: continuous tail vein infusion at 2×MIR, LORR maintained 1 hour, Table E4
Method: Pharmacological Effects of the Compounds on Continuous Infusion in Rats
Adult male Sprague-Dawley rats with body weight ranging from 250 to 300 gm were selected for continuous infusion test. […] Time to recovery of righting reflex from stopping infusion, and time to fully awake from stopping infusion were recorded.

[2] = system: rats; format: in vivo, rat; settings: rats of the MAP/HR figures, 2×ED50, tail vein
[3] = system: rats; format: in vivo, rat; settings: rats of the MAP/HR figures, 2×ED50, tail vein; same value in min
Procedure, shortened: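 Hemodynamic stability judged from mean arterial pressure and heart rate, recorded at 15 s intervals over 30 min pre- and post-dose. Dosing was through a tail-vein indwelling catheter in rats carrying implanted aortic/ventricular catheters and ECG wires, operated ≥1 week earlier.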

[4] = system: rats
Method: Adult male Sprague-Dawley rats (250-300 g) were selected for the experiment. […] The anesthesia effects of the compounds were assessed in rats using a LORR assay and a period >30 s was considered as an indicator of general anesthesia. Then the up and down method was used to determine 50% effective dose (ED50). The drugs were administered through the tail vein of rats in a volume of 0.6 mL and at a rate of 0.1 mL/s.

[5] = system: rats; experiment: Loss of righting reflexes (LORR) assay in rats, ED50 by up and down method; format: in vivo, rat; settings: tail vein, class symbols; for ED50: Rattus norvegicus
Procedure, shortened: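 ED50 obtained by up-and-down dosing, with righting-reflex loss over 30 s counted as general anesthesia. Compounds injected into the tail vein (0.1 mL/s) of male Sprague-Dawley rats weighing 250-300 g.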

[6] = system: rats; experiment: Pharmacological characteristics at equivalent doses (2×ED50) in rats; settings: 2×ED50, tail vein; for Adverse reactions: Red urine (incidence): DMSO solution (DMSO alone 10/10); for Adverse reactions: Tremor (incidence): animals affected/animals; for Onset time: time of LORR
Procedure, shortened: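 Anesthesia onset, recorded as time of LORR, was measured after a 2×ED50 tail-vein injection (0.6 mL, 0.1 mL/s). Animals were male Sprague-Dawley rats of 250-300 g, n=8.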

## C=C=CC1(SC(=O)c2c(F)ncn2[C@H](C)c2ccccc2)CSC1 [Compound E90]
[1]
  Onset time: 2 to 3 min
  Recovery time after stopping infusion: 9 to 12 min
  Types and incidence of adverse reactions: Tremor (2/6)
[2]
  recovery time of the test animals' righting reflex: 85 s
[3]
  recovery time of the test animals' righting reflex: 1.42 min
[4]
  Approximate therapeutic index: >30
  Minimal lethal dose: >1.5 mg/kg
[5]
  ED50: 0.01 to 0.1 mg/kg
[6]
  Righting reflex duration: 1.29 ± 0.64 min
  Adverse reactions: Red urine (incidence): urine (8/8)
  Adverse reactions: Tremor (incidence): (1/8), Red
  Onset time: 0.50 ± 0.20 min

## C[C@H](c1ccccc1)n1c(Cl)nc(Cl)c1C(=O)OC1CSC1 [Compound E133]
[1]
  Onset time: 3 to 4 min
  Recovery time after stopping infusion: 9 to 12 min
  Types and incidence of adverse reactions: Tremor (4/6)
[2]
  recovery time of the test animals' righting reflex: 138 s
[3]
  recovery time of the test animals' righting reflex: 2.30 min
[4]
  Approximate therapeutic index: >12
  Minimal lethal dose: >10 mg/kg
[5]
  ED50: 0.5 to 1 mg/kg
[6]
  Righting reflex duration: 2.10 ± 0.86 min
  Adverse reactions: Red urine (incidence): urine (8/8)
  Adverse reactions: Tremor (incidence): (4/8), Red
  Onset time: 0.25 ± 0.10 min

## C[C@H](c1ccccc1)n1cnc(F)c1C(=O)OC1(C)CCC1 [Compound E27]
[2]
  recovery time of the test animals' righting reflex: 246 s
[3]
  recovery time of the test animals' righting reflex: 4.10 min
[4]
  Approximate therapeutic index: >24
  Minimal lethal dose: >6 mg/kg
[5]
  ED50 (mg/kg): B (B means that the measured ED50 is in the range of 0.10-0.50 mg/kg (excluding 0.10 mg/kg, including 0.50 mg/kg).)
[6]
  Righting reflex duration: 4.13 ± 1.12 min
  Sedation duration (mg/kg): 10.23 ± 1.60
  Adverse reactions: Red urine (incidence): (8/8)
  Onset time: 0.31 ± 0.10 min

## CC(=O)C1(OC(=O)c2cncn2[C@H](C)c2ccccc2)CC1 [Compound C1]
[2]
  recovery time of the test animals' righting reflex: 130 s
[3]
  recovery time of the test animals' righting reflex: 2.17 min
[4]
  Approximate therapeutic index: >90
  Minimal lethal dose: >20 mg/kg
[5]
  ED50: 0.01 to 0.1 mg/kg
[6]
  Righting reflex duration: 1.9 ± 0.64 min
  Adverse reactions: Red urine (incidence): (8/8)
  Adverse reactions: Tremor (incidence): Tremor (8/8), Red urine
  Onset time: 0.15 ± 0.09 min

## CC(C)OC(=O)c1c(F)ncn1[C@H](C)c1ccccc1 [Compound E24]
[2]
  recovery time of the test animals' righting reflex: 75 s
[3]
  recovery time of the test animals' righting reflex: 1.25 min
[4]
  Approximate therapeutic index: >45
  Minimal lethal dose: >4 mg/kg
[5]
  ED50: 0.01 to 0.1 mg/kg
[6]
  Righting reflex duration: 1.00 ± 0.29 min
  Adverse reactions: Red urine (incidence): (8/8)
  Onset time: 0.38 ± 0.14 min

## C=C=CC1(OC(=O)c2cncn2[C@H](C)c2ccccc2)CCOCC1 [Compound D34]
[2]
  recovery time of the test animals' righting reflex: 170 s
[3]
  recovery time of the test animals' righting reflex: 2.83 min
[4]
  Approximate therapeutic index: >13
  Minimal lethal dose: >8 mg/kg
[5]
  ED50: 0.5 to 1 mg/kg
[6]
  Righting reflex duration: 4.50 ± 0.86 min
  Adverse reactions: Red urine (incidence): Red urine (8/8)
  Onset time: 0.11 ± 0.04 min

## C[C@H](c1ccccc1)n1cnc(F)c1C(=O)OC1COC1 [Compound E10]
[2]
  recovery time of the test animals' righting reflex: 162 s
[3]
  recovery time of the test animals' righting reflex: 2.70 min
[4]
  Approximate therapeutic index: >14
  Minimal lethal dose: >10 mg/kg
[5]
  ED50: 0.5 to 1 mg/kg
[6]
  Righting reflex duration: 2.59 ± 0.85 min
  Adverse reactions: Red urine (incidence): (8/8)
  Onset time: 0.21 ± 0.05 min

## C[C@H](c1ccccc1)n1cnc(F)c1C(=O)OCC(C)(C)C [Compound E26]
[2]
  recovery time of the test animals' righting reflex: 94 s
[3]
  recovery time of the test animals' righting reflex: 1.57 min
[4]
  Approximate therapeutic index: >50
  Minimal lethal dose: >4 mg/kg
[5]
  ED50 (mg/kg): A (A indicates that the measured ED50 is in the range of 0.01-0.10 mg/kg (including 0.01 and 0.10 mg/kg).)
[6]
  Righting reflex duration: 1.45 ± 0.41 min
  Sedation duration (mg/kg): 6.37 ± 1.31
  Adverse reactions: Red urine (incidence): (8/8)
  Onset time: 0.48 ± 0.09 min

## C=CC1(OC(=O)c2cncn2[C@H](C)c2ccccc2)COC1 [Compound D7]
[2]
  recovery time of the test animals' righting reflex: 410 s
[3]
  recovery time of the test animals' righting reflex: 6.83 min
[4]
  Approximate therapeutic index: >10
  Minimal lethal dose: >6 mg/kg
[5]
  ED50: 0.5 to 1 mg/kg
[6]
  Righting reflex duration: 3.20 ± 0.81 min
  Adverse reactions: Red urine (incidence): Red urine (8/8)
  Onset time: 0.10 ± 0.01 min

## CCCC(C)(C)OC(=O)c1c(F)ncn1[C@H](C)c1ccccc1 [Compound E29]
[2]
  recovery time of the test animals' righting reflex: 165 s
[3]
  recovery time of the test animals' righting reflex: 2.75 min
[4]
  Approximate therapeutic index: >15
  Minimal lethal dose: >6 mg/kg
[5]
  ED50: 0.1 to 0.5 mg/kg
[6]
  Righting reflex duration: 2.74 ± 2.63 min
  Adverse reactions: Red urine (incidence): (8/8)
  Onset time: 0.48 ± 0.21 min

## C=CC#CC(C)OC(=O)c1c(F)ncn1[C@H](C)c1ccccc1 (some centres unmarked) [Compound E20]
[2]
  recovery time of the test animals' righting reflex: 51 s
[3]
  recovery time of the test animals' righting reflex: 0.85 min
[4]
  Approximate therapeutic index: >80
  Minimal lethal dose: >5 mg/kg
[5]
  ED50: 0.01 to 0.1 mg/kg
[6]
  Adverse reactions: Tongue stretching (incidence): (2/8),
  Righting reflex duration: 0.75 ± 0.21 min
  Adverse reactions: Red urine (incidence): (8/8)
  Onset time: 0.51 ± 0.16 min

## CCC(C)(CC)OC(=O)c1c(F)ncn1[C@H](C)c1ccccc1 [Compound E30]
[2]
  recovery time of the test animals' righting reflex: 80 s
[3]
  recovery time of the test animals' righting reflex: 1.33 min
[4]
  Approximate therapeutic index: >42
  Minimal lethal dose: >6 mg/kg
[5]
  ED50: 0.1 to 0.5 mg/kg
[6]
  Righting reflex duration: 1.23 ± 0.58 min
  Adverse reactions: Red urine (incidence): (8/8)
  Onset time: 0.60 ± 0.18 min

## C[C@H](c1ccccc1)n1cnc(F)c1C(=O)OC1CSC1 [Compound E11]
[2]
  recovery time of the test animals' righting reflex: 93 s
[3]
  recovery time of the test animals' righting reflex: 1.55 min
[4]
  Approximate therapeutic index: >60
  Minimal lethal dose: >4 mg/kg
[5]
  ED50: 0.01 to 0.1 mg/kg
[6]
  Righting reflex duration: 1.52 ± 0.53 min
  Adverse reactions: Red urine (incidence): (8/8)
  Onset time: 0.57 ± 0.25 min

## C=C=CC(C)OC(=O)c1c(F)ncn1[C@H](C)c1ccccc1 (some centres unmarked) [Compound E18]
[2]
  recovery time of the test animals' righting reflex: 158 s
[3]
  recovery time of the test animals' righting reflex: 2.63 min
[4]
  Approximate therapeutic index: >20
  Minimal lethal dose: >1 mg/kg
[5]
  ED50: 0.01 to 0.1 mg/kg
[6]
  Righting reflex duration: 2.51 ± 1.69 min
  Adverse reactions: Red urine (incidence): (8/8)
  Onset time: 0.40 ± 0.20 min

## C=CC#CC(C)(C)OC(=O)c1c(F)ncn1[C@H](C)c1ccccc1 [Compound E21]
[2]
  recovery time of the test animals' righting reflex: 155 s
[3]
  recovery time of the test animals' righting reflex: 2.58 min
[4]
  Approximate therapeutic index: >12
  Minimal lethal dose: >9 mg/kg
[5]
  ED50 (mg/kg): C (C indicates that the measured ED50 is in the range of 0.50-1.00 mg/kg (excluding 0.50 mg/kg, including 1.00 mg/kg).)
[6]
  Righting reflex duration: 2.76 ± 2.17 min
  Sedation duration (mg/kg): 7.71 ± 3.03
  Adverse reactions: Red urine (incidence): (8/8)
  Onset time: 0.49 ± 0.20 min

## C#CC(C)(C)OC(=O)c1c(F)ncn1[C@H](C)c1ccccc1 [Compound E25]
[2]
  recovery time of the test animals' righting reflex: 134 s
[3]
  recovery time of the test animals' righting reflex: 2.23 min
[4]
  Approximate therapeutic index: >24
  Minimal lethal dose: >6 mg/kg
[5]
  ED50: 0.1 to 0.5 mg/kg
[6]
  Adverse reactions: Restlessness (incidence): (2/8), Red
  Righting reflex duration: 2.10 ± 0.86 min
  Adverse reactions: Red urine (incidence): urine (8/8)
  Onset time: 0.25 ± 0.09 min

## C=C=CC(C)(C)OC(=O)c1c(F)ncn1[C@H](C)c1ccccc1 [Compound E19]
[2]
  recovery time of the test animals' righting reflex: 56 s
[3]
  recovery time of the test animals' righting reflex: 0.93 min
[4]
  Approximate therapeutic index: >40
  Minimal lethal dose: >4 mg/kg
[5]
  ED50: 0.01 to 0.1 mg/kg
[6]
  Righting reflex duration: 0.80 ± 0.30 min
  Adverse reactions: Red urine (incidence): urine (8/8)
  Adverse reactions: Tremor (incidence): (3/8), Red
  Onset time: 0.34 ± 0.13 min

## CCC(C)(C)OC(=O)c1c(F)ncn1[C@H](C)c1ccccc1 [Compound E28]
[2]
  recovery time of the test animals' righting reflex: 150 s
[3]
  recovery time of the test animals' righting reflex: 2.5 min
[4]
  Approximate therapeutic index: >16
  Minimal lethal dose: >6 mg/kg
[5]
  ED50: 0.1 to 0.5 mg/kg
[6]
  Righting reflex duration: 2.69 ± 1.07 min
  Adverse reactions: Red urine (incidence): (8/8)
  Onset time: 0.43 ± 0.19 min

## CC#CC(C)OC(=O)c1c(F)ncn1[C@H](C)c1ccccc1 (some centres unmarked) [Compound E16]
[2]
  recovery time of the test animals' righting reflex: 200 s
[3]
  recovery time of the test animals' righting reflex: 3.33 min
[4]
  Approximate therapeutic index: >20
  Minimal lethal dose: >4 mg/kg
[5]
  ED50: 0.1 to 0.5 mg/kg
[6]
  Righting reflex duration: 3.59 ± 1.22 min
  Adverse reactions: Red urine (incidence): (8/8)
  Onset time: 0.30 ± 0.09 min
